Key:
Type in all cases: biochemical
[1] = target: T1, trypsin (Bos taurus, UniProt P00760); experiment: Trypsin inhibition assay; conditions: class symbol instead of IC50
T1 sequence (P00760 24-246): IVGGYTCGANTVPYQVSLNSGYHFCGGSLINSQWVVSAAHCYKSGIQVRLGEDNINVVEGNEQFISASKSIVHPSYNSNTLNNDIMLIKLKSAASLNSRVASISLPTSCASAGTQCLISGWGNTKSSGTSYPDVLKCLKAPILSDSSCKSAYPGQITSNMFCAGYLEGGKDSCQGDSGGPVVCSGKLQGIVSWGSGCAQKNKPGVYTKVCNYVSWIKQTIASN
Protocol: (§1) The enzyme inhibitory activity of cyanopeptolins was assayed against trypsin [108], chymotrypsin, thrombin [109], and elastase as described before. In brief, the samples were prepared and serially diluted (1 mg, 1:1—1:10,000 times) in 1% DMSO; the standard inhibitors: aprotinin (trypsin and chymotrypsin) AEBSF 4-(2-aminoethyl)benzenesulfonyl fluoride hydrochloride (thrombin), elastatinal (elastase) (all from Sigma Aldrich; St. Louis, MO, USA) were also prepared in 1% DMSO. DMSO (1%) without the addition of the enzyme served as a negative control. All tests were carried out in triplicates. After the incubation of the assay mixtures, the absorbances were measured at 405 nm (Varioskan Flash Thermo Fisher Scientific OY, Vantaa, Finland). The reduction in enzyme activity greater than 50% was considered as significant.

[2] = tested on: chymotrypsin; experiment: Chymotrypsin inhibition assay; conditions: read-out: CHY (chymotrypsin) IC50
Protocol: as §1, with “In” for “The enzyme inhibitory activity of cyanopeptolins was assayed against trypsin [108], chymotrypsin, thrombin [109], and elastase as described before. In”

[3] = target: thrombin (Homo sapiens, UniProt P00734); experiment: Thrombin inhibition assay; conditions: highest concentration in the assay 45 µg × mL−1
Protocol: as §1

[4] = target: elastase (Sus scrofa, UniProt P00772); experiment: Elastase inhibition assay; conditions: class symbol instead of IC50
Chain of elastase (P00772 27-266): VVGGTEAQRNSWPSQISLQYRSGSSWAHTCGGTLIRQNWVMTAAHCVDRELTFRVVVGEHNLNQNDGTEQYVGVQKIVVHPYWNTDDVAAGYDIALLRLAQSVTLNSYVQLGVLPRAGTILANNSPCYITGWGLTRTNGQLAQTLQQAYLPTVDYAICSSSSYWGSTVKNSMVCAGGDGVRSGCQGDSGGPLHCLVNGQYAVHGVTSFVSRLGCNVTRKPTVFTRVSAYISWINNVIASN
Protocol: as §1

CCCCCC(=O)N[C@@H](CC(=O)O)C(=O)N[C@@H]1C(=O)N[C@@H](Cc2ccccc2)C(=O)N[C@H]2CC[C@@H](O)N(C2=O)[C@@H](Cc2ccccc2)C(=O)N(C)[C@@H](Cc2ccccc2)C(=O)N[C@@H](C(C)C)C(=O)O[C@@H]1C [CP 981, [Thr + Phe + Ahp + Phe + MePhe + Val]Asp + HA]
TRY (trypsin) inhibition class [1]: − (not active (inhibition below 50%))
IC50 [2]: 3.92 µM
TRB (thrombin) inhibition class [3]: − (not active (inhibition below 50%))
E (elastase) inhibition class [4]: − (not active (inhibition below 50%))

Reference: article PMC10608790, “Structural Diversity and Biological Activity of Cyanopeptolins Produced by Nostoc edaphicum CCNP1411” (Marine Drugs, 2023)
